From the supplement of paper PMC10307832

How the values were obtained:
Test in all cases: relative viability (nuclei count vs DMSO), 5 days (fraction); higher = more cells survive
UMC-11 = tested on: UMC-11
In short: (§1)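 Relative viability equals treated-well nuclei counts divided by vehicle-well nuclei counts. Counts came from 4× images of lung cancer cell lines grown in 1536-well plates for 5 days after pin-tool dosing on the day after seeding. Dosing used one drug alone or a fixed anchor-drug dose plus five library-drug doses (not always all listed) in √10 steps, and values are medians of duplicate plates.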

BEN = tested on: BEN
In short: as §1

NCI-H2126 = tested on: NCI-H2126
In short: as §1

HCC-78 = tested on: HCC-78
In short: as §1

NCI-H1395 = tested on: NCI-H1395
In short: as §1

SW 900 = tested on: SW 900
In short: as §1

LC-2-ad = tested on: LC-2-ad
In short: as §1

EMC-BAC-2 = tested on: EMC-BAC-2
In short: as §1

LOU-NH91 = tested on: LOU-NH91
In short: as §1

COR-L 105 = tested on: COR-L 105
In short: as §1

RERF-LC-KJ = tested on: RERF-LC-KJ
In short: as §1

HOP-62 = tested on: HOP-62
In short: as §1

LXF-289 = tested on: LXF-289
In short: as §1

201T = tested on: 201T
In short: as §1

H3255 = tested on: H3255
In short: as §1

NCI-H1993 = tested on: NCI-H1993
In short: as §1

NCI-H2087 = tested on: NCI-H2087
In short: as §1

NCI-H2170 = tested on: NCI-H2170
In short: as §1

HARA = tested on: HARA
In short: as §1

SK-MES-1 = tested on: SK-MES-1
In short: as §1

NCI-H650 = tested on: NCI-H650
In short: as §1

LU99A = tested on: LU99A
In short: as §1

CCNC(=O)c1noc(-c2cc(C(C)C)c(O)cc2O)c1-c1ccc(CN2CCOCC2)cc1 [Luminespib] + O=C(CCCCCCC(=O)Nc1ccccc1)NO [Vorinostat] (partner 1 µM)
relative viability (UMC-11; first compound 0.002 µM): 0.393
relative viability (UMC-11; first compound 0.006325 µM): 0.402
relative viability (UMC-11; first compound 0.02 µM): 0.345
relative viability (UMC-11; first compound 0.06325 µM): 0.302
relative viability (UMC-11; first compound 0.2 µM): 0.152
relative viability (BEN; first compound 0.002 µM): 0.608
relative viability (BEN; first compound 0.006325 µM): 0.546
relative viability (BEN; first compound 0.02 µM): 0.358
relative viability (BEN; first compound 0.06325 µM): 0.525
relative viability (BEN; first compound 0.2 µM): 0.36
relative viability (NCI-H2126; first compound 0.002 µM): 0.743
relative viability (NCI-H2126; first compound 0.006325 µM): 0.765
relative viability (NCI-H2126; first compound 0.06325 µM): 0.468
relative viability (NCI-H2126; first compound 0.2 µM): 0.192
relative viability (HCC-78; first compound 0.002 µM): 0.381
relative viability (HCC-78; first compound 0.006325 µM): 0.426
relative viability (HCC-78; first compound 0.02 µM): 0.283
relative viability (HCC-78; first compound 0.06325 µM): 0.519
relative viability (HCC-78; first compound 0.2 µM): 0.356
relative viability (NCI-H1395; first compound 0.002 µM): 0.731
relative viability (NCI-H1395; first compound 0.006325 µM): 0.751
relative viability (NCI-H1395; first compound 0.02 µM): 0.508
relative viability (NCI-H1395; first compound 0.06325 µM): 0.289
relative viability (NCI-H1395; first compound 0.2 µM): 0.289
relative viability (SW 900; first compound 0.002 µM): 0.455
relative viability (SW 900; first compound 0.006325 µM): 0.489
relative viability (SW 900; first compound 0.02 µM): 0.266
relative viability (SW 900; first compound 0.06325 µM): 0.124
relative viability (SW 900; first compound 0.2 µM): 0.0992
relative viability (LC-2-ad; first compound 0.002 µM): 0.647
relative viability (LC-2-ad; first compound 0.006325 µM): 0.727
relative viability (LC-2-ad; first compound 0.02 µM): 0.554
relative viability (LC-2-ad; first compound 0.06325 µM): 0.465
relative viability (LC-2-ad; first compound 0.2 µM): 0.179
relative viability (EMC-BAC-2; first compound 0.002 µM): 0.461
relative viability (EMC-BAC-2; first compound 0.02 µM): 0.263
relative viability (EMC-BAC-2; first compound 0.06325 µM): 0.148
relative viability (EMC-BAC-2; first compound 0.2 µM): 0.178
relative viability (LOU-NH91; first compound 0.002 µM): 0.935
relative viability (LOU-NH91; first compound 0.006325 µM): 0.872
relative viability (LOU-NH91; first compound 0.02 µM): 0.647
relative viability (LOU-NH91; first compound 0.06325 µM): 0.335
relative viability (LOU-NH91; first compound 0.2 µM): 0.377
relative viability (COR-L 105; first compound 0.002 µM): 0.917
relative viability (COR-L 105; first compound 0.006325 µM): 0.84
relative viability (COR-L 105; first compound 0.02 µM): 0.959
relative viability (COR-L 105; first compound 0.06325 µM): 0.43
relative viability (COR-L 105; first compound 0.2 µM): 0.278
relative viability (RERF-LC-KJ; first compound 0.002 µM): 0.624
relative viability (RERF-LC-KJ; first compound 0.006325 µM): 0.707
relative viability (RERF-LC-KJ; first compound 0.02 µM): 0.473
relative viability (RERF-LC-KJ; first compound 0.06325 µM): 0.467
relative viability (RERF-LC-KJ; first compound 0.2 µM): 0.216
relative viability (HOP-62; first compound 0.002 µM): 0.527
relative viability (HOP-62; first compound 0.006325 µM): 0.555
relative viability (HOP-62; first compound 0.02 µM): 0.454
relative viability (HOP-62; first compound 0.06325 µM): 0.18
relative viability (HOP-62; first compound 0.2 µM): 0.0867
relative viability (LXF-289; first compound 0.002 µM): 0.69
relative viability (LXF-289; first compound 0.006325 µM): 0.707
relative viability (LXF-289; first compound 0.02 µM): 1
relative viability (LXF-289; first compound 0.06325 µM): 0.518
relative viability (LXF-289; first compound 0.2 µM): 0.147
relative viability (201T; first compound 0.002 µM): 0.959
relative viability (201T; first compound 0.006325 µM): 0.872
relative viability (201T; first compound 0.02 µM): 0.768
relative viability (201T; first compound 0.06325 µM): 0.913
relative viability (201T; first compound 0.2 µM): 0.324
relative viability (H3255; first compound 0.002 µM): 0.843
relative viability (H3255; first compound 0.02 µM): 0.625
relative viability (H3255; first compound 0.06325 µM): 0.745
relative viability (H3255; first compound 0.2 µM): 0.248
relative viability (NCI-H1993; first compound 0.002 µM): 0.893
relative viability (NCI-H1993; first compound 0.006325 µM): 0.793
relative viability (NCI-H1993; first compound 0.02 µM): 0.552
relative viability (NCI-H1993; first compound 0.06325 µM): 0.246
relative viability (NCI-H1993; first compound 0.2 µM): 0.238
relative viability (NCI-H2087; first compound 0.002 µM): 0.667
relative viability (NCI-H2087; first compound 0.006325 µM): 0.609
relative viability (NCI-H2087; first compound 0.02 µM): 0.656
relative viability (NCI-H2087; first compound 0.06325 µM): 0.111
relative viability (NCI-H2087; first compound 0.2 µM): 0.122
relative viability (NCI-H2170; first compound 0.002 µM): 0.746
relative viability (NCI-H2170; first compound 0.006325 µM): 0.698
relative viability (NCI-H2170; first compound 0.06325 µM): 0.572
relative viability (NCI-H2170; first compound 0.2 µM): 0.135
relative viability (HARA; first compound 0.002 µM): 0.51
relative viability (HARA; first compound 0.006325 µM): 0.504
relative viability (HARA; first compound 0.02 µM): 0.591
relative viability (HARA; first compound 0.06325 µM): 0.589
relative viability (HARA; first compound 0.2 µM): 0.132
relative viability (SK-MES-1; first compound 0.002 µM): 1.14
relative viability (SK-MES-1; first compound 0.006325 µM): 0.931
relative viability (SK-MES-1; first compound 0.02 µM): 1.04
relative viability (SK-MES-1; first compound 0.06325 µM): 0.174
relative viability (SK-MES-1; first compound 0.2 µM): 0.153
relative viability (NCI-H650; first compound 0.002 µM): 0.429
relative viability (NCI-H650; first compound 0.006325 µM): 0.392
relative viability (NCI-H650; first compound 0.02 µM): 0.298
relative viability (NCI-H650; first compound 0.06325 µM): 0.158
relative viability (NCI-H650; first compound 0.2 µM): 0.103
relative viability (LU99A; first compound 0.002 µM): 0.58
relative viability (LU99A; first compound 0.006325 µM): 0.45
relative viability (LU99A; first compound 0.02 µM): 0.263
relative viability (LU99A; first compound 0.06325 µM): 0.201
relative viability (LU99A; first compound 0.2 µM): 0.103
